Tests used:
Assay in all cases: relative viability (nuclei count vs DMSO), 5 days (fraction); higher = more cells survive
NCI-H2347 = tested on: NCI-H2347
Summary of the method: (§1)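 Lung cancer cell lines in 1536-well plates got either a single drug or a fixed anchor-drug dose together with five library-drug doses (not always all listed) in √10 steps, by pin tool, on the day after seeding. Nuclei were counted after 5 days, and relative viability is the treated-to-vehicle ratio of nuclei counts. Values are medians of duplicate plates.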

NCI-H650 = tested on: NCI-H650
Summary of the method: as §1

COR-L23 = tested on: COR-L23
Summary of the method: as §1

NCI-H727 = tested on: NCI-H727
Summary of the method: as §1

PC-14 = tested on: PC-14
Summary of the method: as §1

NCI-H838 = tested on: NCI-H838
Summary of the method: as §1

NCI-H1650 = tested on: NCI-H1650
Summary of the method: as §1

LU99A = tested on: LU99A
Summary of the method: as §1

H3255 = tested on: H3255
Summary of the method: as §1

A-427 = tested on: A-427
Summary of the method: as §1

NCI-H1793 = tested on: NCI-H1793
Summary of the method: as §1

LCLC-103H = tested on: LCLC-103H
Summary of the method: as §1

LK-2 = tested on: LK-2
Summary of the method: as §1

NCI-H1944 = tested on: NCI-H1944
Summary of the method: as §1

NCI-H460 = tested on: NCI-H460
Summary of the method: as §1

LCLC-97TM1 = tested on: LCLC-97TM1
Summary of the method: as §1

201T = tested on: 201T
Summary of the method: as §1

HCC-44 = tested on: HCC-44
Summary of the method: as §1

NCI-H23 = tested on: NCI-H23
Summary of the method: as §1

PC-3 [JPC-3] = tested on: PC-3 [JPC-3]
Summary of the method: as §1

SW 900 = tested on: SW 900
Summary of the method: as §1

SW 1573 = tested on: SW 1573
Summary of the method: as §1

Compound NC(=O)Nc1cc(-c2cccc(F)c2)sc1C(=O)N[C@H]1CCCNC1 [AZD7762] + O=C(c1cc(Cc2n[nH]c(=O)c3ccccc23)ccc1F)N1CCN(C(=O)C2CC2)CC1 [Olaparib] (partner 8 µM) has a relative viability (NCI-H2347; first compound 0.01 µM) of 0.612, a relative viability (NCI-H2347; first compound 0.03162 µM) of 0.656 and a relative viability (NCI-H2347; first compound 0.1 µM) of 0.78. It also gave a relative viability (NCI-H2347; first compound 0.3162 µM) of 0.693, a relative viability (NCI-H2347; first compound 1 µM) of 0.544 and a relative viability (NCI-H650; first compound 0.01 µM) of 0.417. It also gave a relative viability (NCI-H650; first compound 0.03162 µM) of 0.49, a relative viability (NCI-H650; first compound 0.1 µM) of 0.494 and a relative viability (NCI-H650; first compound 0.3162 µM) of 0.446. The relative viability (NCI-H650; first compound 1 µM) was 0.337, the relative viability (COR-L23; first compound 0.01 µM) was 0.405 and the relative viability (COR-L23; first compound 0.03162 µM) was 0.248. The relative viability (COR-L23; first compound 0.1 µM) was 0.215, the relative viability (COR-L23; first compound 0.3162 µM) was 0.166 and the relative viability (COR-L23; first compound 1 µM) was 0.0843. It also gave a relative viability (NCI-H727; first compound 0.01 µM) of 0.735, a relative viability (NCI-H727; first compound 0.03162 µM) of 0.723 and a relative viability (NCI-H727; first compound 0.1 µM) of 0.931. It also gave a relative viability (NCI-H727; first compound 0.3162 µM) of 0.717, a relative viability (NCI-H727; first compound 1 µM) of 0.543 and a relative viability (PC-14; first compound 0.01 µM) of 0.248. For the same compound, the relative viability (PC-14; first compound 0.03162 µM) was 0.157, the relative viability (PC-14; first compound 0.1 µM) was 0.0969 and the relative viability (PC-14; first compound 0.3162 µM) was 0.0837. For the same compound, the relative viability (PC-14; first compound 1 µM) was 0.0568, the relative viability (NCI-H838; first compound 0.01 µM) was 0.86 and the relative viability (NCI-H838; first compound 0.03162 µM) was 0.774. For the same compound, the relative viability (NCI-H838; first compound 0.1 µM) was 0.744, the relative viability (NCI-H838; first compound 0.3162 µM) was 0.493 and the relative viability (NCI-H838; first compound 1 µM) was 0.169. The relative viability (NCI-H1650; first compound 0.01 µM) was 0.787, the relative viability (NCI-H1650; first compound 0.03162 µM) was 0.863 and the relative viability (NCI-H1650; first compound 0.1 µM) was 0.905. For the same compound, the relative viability (NCI-H1650; first compound 0.3162 µM) was 0.658, the relative viability (NCI-H1650; first compound 1 µM) was 0.23 and the relative viability (LU99A; first compound 0.01 µM) was 0.253. For the same compound, the relative viability (LU99A; first compound 0.03162 µM) was 0.246, the relative viability (LU99A; first compound 0.1 µM) was 0.202 and the relative viability (LU99A; first compound 0.3162 µM) was 0.148. It also gave a relative viability (LU99A; first compound 1 µM) of 0.124, a relative viability (H3255; first compound 0.01 µM) of 0.551 and a relative viability (H3255; first compound 0.03162 µM) of 0.542. The relative viability (H3255; first compound 0.1 µM) was 0.59, the relative viability (H3255; first compound 0.3162 µM) was 0.518 and the relative viability (H3255; first compound 1 µM) was 0.497. The relative viability (A-427; first compound 0.01 µM) was 0.865, the relative viability (A-427; first compound 0.03162 µM) was 0.767 and the relative viability (A-427; first compound 0.1 µM) was 0.78. The relative viability (A-427; first compound 0.3162 µM) was 0.733, the relative viability (A-427; first compound 1 µM) was 0.379 and the relative viability (NCI-H1793; first compound 0.01 µM) was 0.886. For the same compound, the relative viability (NCI-H1793; first compound 0.03162 µM) was 0.909, the relative viability (NCI-H1793; first compound 0.1 µM) was 0.917 and the relative viability (NCI-H1793; first compound 0.3162 µM) was 0.997. For the same compound, the relative viability (NCI-H1793; first compound 1 µM) was 0.248, the relative viability (LCLC-103H; first compound 0.01 µM) was 0.827 and the relative viability (LCLC-103H; first compound 0.03162 µM) was 0.705. For the same compound, the relative viability (LCLC-103H; first compound 0.1 µM) was 0.733, the relative viability (LCLC-103H; first compound 0.3162 µM) was 0.772 and the relative viability (LCLC-103H; first compound 1 µM) was 0.714. For the same compound, the relative viability (LK-2; first compound 0.01 µM) was 0.789, the relative viability (LK-2; first compound 0.03162 µM) was 1 and the relative viability (LK-2; first compound 0.1 µM) was 0.729. It also gave a relative viability (LK-2; first compound 0.3162 µM) of 0.623, a relative viability (LK-2; first compound 1 µM) of 0.435 and a relative viability (NCI-H1944; first compound 0.01 µM) of 0.46. It also gave a relative viability (NCI-H1944; first compound 0.03162 µM) of 0.448, a relative viability (NCI-H1944; first compound 0.1 µM) of 0.504 and a relative viability (NCI-H1944; first compound 0.3162 µM) of 0.532. For the same compound, the relative viability (NCI-H1944; first compound 1 µM) was 0.446, the relative viability (NCI-H460; first compound 0.01 µM) was 0.441 and the relative viability (NCI-H460; first compound 0.03162 µM) was 0.35. It also gave a relative viability (NCI-H460; first compound 0.1 µM) of 0.261, a relative viability (NCI-H460; first compound 0.3162 µM) of 0.132 and a relative viability (NCI-H460; first compound 1 µM) of 0.0653. The relative viability (LCLC-97TM1; first compound 0.01 µM) was 0.493, the relative viability (LCLC-97TM1; first compound 0.03162 µM) was 0.523 and the relative viability (LCLC-97TM1; first compound 0.1 µM) was 0.438. The relative viability (LCLC-97TM1; first compound 0.3162 µM) was 0.552, the relative viability (LCLC-97TM1; first compound 1 µM) was 0.198 and the relative viability (201T; first compound 0.01 µM) was 0.821. The relative viability (201T; first compound 0.03162 µM) was 0.854, the relative viability (201T; first compound 0.1 µM) was 0.885 and the relative viability (201T; first compound 0.3162 µM) was 0.566. The relative viability (201T; first compound 1 µM) was 0.475, the relative viability (HCC-44; first compound 0.01 µM) was 0.986 and the relative viability (HCC-44; first compound 0.03162 µM) was 0.922. The relative viability (HCC-44; first compound 0.1 µM) was 1.01, the relative viability (HCC-44; first compound 0.3162 µM) was 0.964 and the relative viability (HCC-44; first compound 1 µM) was 0.954. For the same compound, the relative viability (NCI-H23; first compound 0.01 µM) was 0.311, the relative viability (NCI-H23; first compound 0.03162 µM) was 0.287 and the relative viability (NCI-H23; first compound 0.1 µM) was 0.255. It also gave a relative viability (NCI-H23; first compound 0.3162 µM) of 0.222, a relative viability (NCI-H23; first compound 1 µM) of 0.168 and a relative viability (PC-3 [JPC-3]; first compound 0.01 µM) of 1.19. It also gave a relative viability (PC-3 [JPC-3]; first compound 0.03162 µM) of 1.06, a relative viability (PC-3 [JPC-3]; first compound 0.1 µM) of 1.12 and a relative viability (PC-3 [JPC-3]; first compound 0.3162 µM) of 1.05. It also gave a relative viability (PC-3 [JPC-3]; first compound 1 µM) of 0.634, a relative viability (SW 900; first compound 0.01 µM) of 0.887 and a relative viability (SW 900; first compound 0.03162 µM) of 0.835. The relative viability (SW 900; first compound 0.1 µM) was 0.727, the relative viability (SW 900; first compound 0.3162 µM) was 0.949 and the relative viability (SW 900; first compound 1 µM) was 0.47. The relative viability (SW 1573; first compound 0.01 µM) was 0.453, the relative viability (SW 1573; first compound 0.03162 µM) was 0.526 and the relative viability (SW 1573; first compound 0.1 µM) was 0.403. It also gave a relative viability (SW 1573; first compound 0.3162 µM) of 0.408 and a relative viability (SW 1573; first compound 1 µM) of 0.221.

— the supplement of paper PMC10307832
